# Laboratory results published in PubChem BioAssay (NCI).
# Several values for one entry are separate records, joined by “and”; a condition that tells them apart may be missing. Equal values may be shown once.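 Protocol summary: plate cells (96-well), add compound at 5 concentrations, incubate 48 h, interpolate endpoints linearly. The concentration for 50% growth inhibition is given as GI50. Definition used: TGI = concentration required for complete inhibition of growth.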
# Experiments:
# Experiment in all cases: growth of human tumour cells (NCI), 48 h
# 786-0 renal = tested on: 786-0 renal
# A498 renal = tested on: A498 renal
# A549 NSCLC = tested on: A549 NSCLC
# ACHN renal = tested on: ACHN renal
# BT-549 breast = tested on: BT-549 breast
# CAKI-1 renal = tested on: CAKI-1 renal
# CCRF-CEM leukemia = tested on: CCRF-CEM leukemia
# COLO 205 colon = tested on: COLO 205 colon
# EKVX NSCLC = tested on: EKVX NSCLC
# HCC-2998 colon = tested on: HCC-2998 colon
# HCT-116 colon = tested on: HCT-116 colon
# HCT-15 colon = tested on: HCT-15 colon
# HL-60(TB) leukemia = tested on: HL-60(TB) leukemia
# HOP-62 NSCLC = tested on: HOP-62 NSCLC
# HOP-92 NSCLC = tested on: HOP-92 NSCLC
# HS 578T breast = tested on: HS 578T breast
# HT29 colon = tested on: HT29 colon
# K-562 leukemia = tested on: K-562 leukemia
# KM12 colon = tested on: KM12 colon
# LOX IMVI melanoma = tested on: LOX IMVI melanoma
# M14 melanoma = tested on: M14 melanoma
# MALME-3M melanoma = tested on: MALME-3M melanoma
# MCF7 breast = tested on: MCF7 breast
# MDA-MB-231 breast = tested on: MDA-MB-231 breast
# MDA-MB-435 = tested on: MDA-MB-435
# MOLT-4 leukemia = tested on: MOLT-4 leukemia
# NCI-H226 lung = tested on: NCI-H226 lung
# NCI-H23 lung = tested on: NCI-H23 lung
# NCI-H460 lung = tested on: NCI-H460 lung
# NCI-H522 lung = tested on: NCI-H522 lung
# NCI/ADR-RES ovarian = tested on: NCI/ADR-RES ovarian
# OVCAR-3 ovarian = tested on: OVCAR-3 ovarian
# OVCAR-4 ovarian = tested on: OVCAR-4 ovarian
# OVCAR-5 ovarian = tested on: OVCAR-5 ovarian
# OVCAR-8 ovarian = tested on: OVCAR-8 ovarian
# PC-3 prostate = tested on: PC-3 prostate
# RPMI-8226 leukemia = tested on: RPMI-8226 leukemia
# SF-268 CNS = tested on: SF-268 CNS
# SF-295 CNS = tested on: SF-295 CNS
# SF-539 CNS = tested on: SF-539 CNS
# SK-MEL-2 melanoma = tested on: SK-MEL-2 melanoma
# SK-MEL-28 melanoma = tested on: SK-MEL-28 melanoma
# SK-MEL-5 melanoma = tested on: SK-MEL-5 melanoma
# SK-OV-3 ovarian = tested on: SK-OV-3 ovarian
# SN12C renal = tested on: SN12C renal
# SNB-19 CNS = tested on: SNB-19 CNS
# SNB-75 CNS = tested on: SNB-75 CNS
# SR leukemia = tested on: SR leukemia
# SW-620 colon = tested on: SW-620 colon
# T-47D breast = tested on: T-47D breast
# U251 CNS = tested on: U251 CNS
# UACC-257 melanoma = tested on: UACC-257 melanoma
# UACC-62 melanoma = tested on: UACC-62 melanoma
# UO-31 renal = tested on: UO-31 renal
structure (smiles),measurement,setting,value
CCC1=CC2CN(C1)Cc1c([nH]c3ccccc13)[C@@](C(=O)OC)(c1cc3c(cc1OC)N(C)[C@H]1[C@@](O)(C(=O)OC)[C@H](OC(C)=O)[C@]4(CC)C=CCN5CC[C@]31[C@@H]54)C2 (some centres not stated),GI50,786-0 renal,51.4 nM and 77.3 nM
same,TGI,786-0 renal,16700 nM and > 100000 nM
same,GI50,A498 renal,14 nM and 17.3 nM
same,TGI,A498 renal,326 nM and 151 nM
same,GI50,A549 NSCLC,11.4 nM and 20.8 nM
same,TGI,A549 NSCLC,50000 nM and > 100000 nM
same,GI50,ACHN renal,407 nM and 1270 nM
same,TGI,ACHN renal,50000 nM and > 100000 nM
same,GI50,BT-549 breast,< 5 nM and 43 nM
same,GI50,CAKI-1 renal,7860 nM and 6850 nM
same,TGI,CAKI-1 renal,50000 nM and > 100000 nM
same,GI50,CCRF-CEM leukemia,8.79 nM
same,TGI,CCRF-CEM leukemia,20200 nM
same,GI50,COLO 205 colon,7.63 nM
same,GI50,EKVX NSCLC,26700 nM and 45800 nM
same,TGI,EKVX NSCLC,50000 nM and > 100000 nM
same,GI50,HCC-2998 colon,10.8 nM and 16.2 nM
same,GI50,HCT-116 colon,< 5 nM
same,TGI,HCT-116 colon,50000 nM and > 100000 nM
same,GI50,HCT-15 colon,277 nM and 416 nM
same,TGI,HCT-15 colon,50000 nM and > 100000 nM
same,GI50,HL-60(TB) leukemia,< 5 nM
same,TGI,HL-60(TB) leukemia,9.84 nM and 28.5 nM
same,GI50,HOP-62 NSCLC,13.5 nM
same,TGI,HOP-62 NSCLC,43800 nM
same,GI50,HOP-92 NSCLC,1510 nM
same,TGI,HOP-92 NSCLC,97100 nM
same,GI50,HS 578T breast,8.27 nM and 27.7 nM
same,TGI,HS 578T breast,19800 nM and 45700 nM
same,GI50,HT29 colon,< 5 nM
same,TGI,HT29 colon,6000 nM and 20900 nM
same,GI50,K-562 leukemia,< 5 nM
same,TGI,K-562 leukemia,16600 nM and 15200 nM
same,TGI,KM12 colon,372 nM
same,GI50,LOX IMVI melanoma,< 5 nM
same,TGI,LOX IMVI melanoma,50000 nM and > 100000 nM
same,GI50,M14 melanoma,9.53 nM and 24.5 nM
same,TGI,M14 melanoma,5820 nM and 913 nM
same,GI50,MALME-3M melanoma,< 5 nM
same,TGI,MALME-3M melanoma,8680 nM
same,GI50,MCF7 breast,< 5 nM
same,TGI,MCF7 breast,50000 nM and > 100000 nM
same,GI50,MDA-MB-231 breast,18.2 nM and 21.1 nM
same,TGI,MDA-MB-231 breast,5740 nM and 873 nM
same,GI50,MDA-MB-435,< 5 nM
same,GI50,MOLT-4 leukemia,10.5 nM
same,TGI,MOLT-4 leukemia,11100 nM and 13900 nM
same,GI50,NCI-H226 lung,19800 nM
same,TGI,NCI-H226 lung,50000 nM
same,GI50,NCI-H23 lung,17.6 nM and 13.4 nM
same,TGI,NCI-H23 lung,50000 nM and > 100000 nM
same,GI50,NCI-H460 lung,7.35 nM
same,GI50,NCI-H522 lung,< 5 nM
same,TGI,NCI-H522 lung,1300 nM
same,GI50,NCI/ADR-RES ovarian,1050 nM and 1850 nM
same,GI50,OVCAR-3 ovarian,< 5 nM
same,TGI,OVCAR-3 ovarian,6.11 nM and 13.5 nM
same,GI50,OVCAR-4 ovarian,34.1 nM
same,TGI,OVCAR-4 ovarian,50000 nM and > 100000 nM
same,GI50,OVCAR-5 ovarian,32.5 nM and 78.5 nM
same,TGI,OVCAR-5 ovarian,50000 nM and > 100000 nM
same,GI50,OVCAR-8 ovarian,20.1 nM and 30.6 nM
same,TGI,OVCAR-8 ovarian,50000 nM and > 100000 nM
same,GI50,PC-3 prostate,< 5 nM
same,TGI,PC-3 prostate,32600 nM and > 100000 nM
same,GI50,RPMI-8226 leukemia,9.31 nM and 41.5 nM
same,GI50,SF-268 CNS,122 nM and 145 nM
same,TGI,SF-268 CNS,50000 nM and 91000 nM
same,GI50,SF-295 CNS,15.1 nM and 23.1 nM
same,TGI,SF-295 CNS,50000 nM and > 100000 nM
same,GI50,SF-539 CNS,14 nM
same,TGI,SF-539 CNS,8440 nM
same,TGI,SK-MEL-2 melanoma,14900 nM and > 100000 nM
same,GI50,SK-MEL-28 melanoma,22.1 nM
same,TGI,SK-MEL-28 melanoma,> 100000 nM
same,GI50,SK-MEL-5 melanoma,8.73 nM
same,TGI,SK-MEL-5 melanoma,501 nM and 208 nM
same,TGI,SK-OV-3 ovarian,11800 nM
same,GI50,SN12C renal,11.8 nM and 18.6 nM
same,TGI,SN12C renal,50000 nM and > 100000 nM
same,GI50,SNB-19 CNS,23.8 nM
same,TGI,SNB-19 CNS,> 100000 nM
same,TGI,SNB-75 CNS,17900 nM
same,GI50,SR leukemia,< 5 nM
same,TGI,SR leukemia,9270 nM
same,GI50,SW-620 colon,< 5 nM
same,TGI,SW-620 colon,50000 nM and > 100000 nM
same,GI50,T-47D breast,5.07 nM
same,TGI,T-47D breast,50000 nM
same,GI50,U251 CNS,< 5 nM
same,TGI,U251 CNS,6710 nM and 21000 nM
same,GI50,UACC-257 melanoma,7540 nM
same,TGI,UACC-257 melanoma,33300 nM
same,GI50,UACC-62 melanoma,5.89 nM
same,TGI,UACC-62 melanoma,50000 nM and > 100000 nM
same,GI50,UO-31 renal,5450 nM and 1060 nM
same,TGI,UO-31 renal,26600 nM and 76900 nM
